Test results published in patent USRE42930E1, “Aziridinyl-epothilone compounds” (Bristol-Myers Squibb Company, priority 2006, dated 2011).
Where two headings read alike, the source gives them in different places.

Legend:
[1] = test system: HCT116VM46; test: In vitro MTS cytotoxicity assay, taxane-resistant HCT116VM46 (R/S ratio); assay type: cell-based, human; details: R/S ratio = HCT116VM46 IC50/HCT116 IC50
Procedure: (§1) In vitro cytotoxicity was assessed in tumor cells using a tetrazolium-based colorimetric assay which takes advantage of the metabolic conversion of MTS (3-(4,5-dimethylthiazol-2-yl)-5-(3-carboxymethoxyphenyl)-2-(4-sulphenyl)-2H-tetrazolium, inner salt) to a reduced form that absorbs light at 492 nm. Cells were seeded 24 hr prior to addition of the epothilone, epothilone analog, conjugated epothilone, or conjugated epothilone analog. Following a 72 hour incubation at 37° C. with serially diluted compound, MTS, in combination with the electron coupling agent phenazine methosulfate, was added to the cells. The incubation was continued for 3 hours, then the absorbency of the medium at 492 nm was measured with a spectrophotometer to obtain the number of surviving cells relative to control populations. The results are expressed as median cytotoxic concentrations (IC50 values).
(§2) Other epothilone analogs, e.g., aziridinyl epothilones, are known in the art (see, e.g., U.S. Pat. No. 6,399,638; Regueiro-Ren, A, et al. (2001) Org. Letters. 3:2693-96) and show potent antitumor cytotoxicity. For example, an MTS assay that compared the relative cytotoxic potency of a number of epothilone analogs against a pair of taxane-resistant cancer cell lines (HCTVM46 and […]) was conducted (see Table 1). HCTVM46 is a human colon carcinoma cell line derived from the sensitive HCT116 parent line, and is resistant to taxanes due to overexpression of the 170 kD p-glyprotein drug efflux transporter. A2780Tax is a human ovarian carcinoma cell line derived from the parent A2780 line, and is resistant to paclitaxel as a result of a mutation in the tubulin amino acid sequence that impairs the ability of paclitaxel to bind.

[2] = test system: A2780 ovarian carcinoma cell line; test: In vitro MTS proliferation/cytotoxicity assay, A2780; assay type: cell-based, human
Procedure: as §1, §2
(§3) As is shown in Table 1, various aziridinyl epothilone analogs (Compounds CC-EE) show potent antitumor activity against both the HCT116 colon and A2780 ovarian carcinoma cell lines, compared to other known antitumor agents, e.g., paclitaxel, compound AA, and epothilone B.

[3] = test system: clonogenic KB cancer cells; test: Clonogenic cell survival (colony formation) assay; assay type: cell-based, human
Procedure: Cancer cells were seeded at 3.0E+05 cells in a T75 flask with 10 ml of RPMI1640 media, free of folic acid, and containing 10% fetal bovine serum and 25 mM HEPES. Cells were grown in a 37° C. incubator containing 5% CO2 for 2 days. On day 2, supernatants were removed from the flasks, and the flasks were divided into 2 groups. One group of cells were incubated with 5 ml of media containing […] of folic acid (Sigma) for 30 minutes and the others were grown in 5 ml of media without added folic acid. Cells were then treated with 20 nM of epothilone, epothilone analog, conjugated epothilone, or conjugated epothilone analog for one hour. At the end of the incubation, the drugs were removed from the flasks and the cells were washed with PBS buffer 3×. After washing, 5 ml of complete media were added into each flask, and the cell was grown in the CO2 incubator for 23 hours. The next morning, the cells were removed from the flasks by trypsinization, cell numbers were determined, and then cells were plated in a 6 well plates. Ten days after plating, colonies were stained with crystal violet and counted. The surviving fractions were determined.
This is important because it is the aziridine epothilone analog, e.g., Compound G, that mediates the antitumor effects upon release from folic acid. […] The concentration needed to kill 90% of clonogenic KB cancer cells (IC90) was determined after a drug exposure duration of 17 hours.

[4] = test system: HCT116 colon carcinoma cell line; test: cells; assay type: cell-based, human
Procedure: as §1, §2, §3

[5] = test system: A2780Tax; assay type: cell-based, human
Procedure: as §1, §2

[6] = biological target: T1, folate receptor (FR) (Homo sapiens, UniProt P15328); test: Displacement of radiolabeled folic acid from FR expressed on KB tumor cells; assay type: binding; details: compared to folic acid (RA = 1.0)
T1 construct: FR expressed on KB tumor cells grown to confluence; endogenous in cells; host or cells: KB tumor cells
Procedure: The binding of these folate conjugates of Compound AA to FR was determined in an assay that measures displacement of radiolabeled folic acid from FR expressed on KB tumor cells grown to confluence.

[7] = test system: FRα(−) M109 murine lung carcinoma; test: In vivo antitumor efficacy, FRα(−) M109 parent tumor model; parameters: species or system mice; details: bolus IV; FIG. 5
Description: (§4) Female CD2F1 mice (Harlan Sprague-Dawley Inc., 20-22 g) maintained in a controlled environment and provided with water and food ad libitum were used in these studies. The murine FRα(−) Madison 109 (M109) lung carcinoma (Marks et al., 1977) and the FR-expressing (FRα(+)) 98M109 variant were used to evaluate the efficacy of the epothilone, epothilone analog (e.g., epothilone derivative), folate-epothilone conjugate, or folate-epothilone analog conjugate. In addition, the human head and neck epidermoid carcinoma KB grown in nude mice was also used for this purpose. […]
(§5) Tumor response was determined by measurement of tumors with a caliper twice a week, until the tumors reached a predetermined “target” size of 1 gm. […]
(§6) Antitumor activity was evaluated at the maximum tolerated dose (MTD) which is defined as the dose level immediately […] which excessive toxicity (i.e. more than one death) occurred. When death occurred, the day of death was recorded. […]
(§7) To estimate tumor cell kill, the tumor volume doubling time (TVDT) was first calculated with the formula: TVDT=Median time (days) for control tumors to reach target size−Median time (days) for control tumors to reach half the target size And, Log cell kill=T-C÷(3.32×TVDT) Statistical evaluations of data were performed using Gehan's generalized Wilcoxon test.

[8] = test system: KB nasopharyngeal epidermoid carcinoma xenografts; test: In vivo antitumor efficacy, KB FRα(+) xenografts in nude mice; details: KB model, FIG. 4
Description: as §4, §5, §6, §7

[9] = test system: FRα(+) 98M109 tumors; test: In vivo antitumor efficacy, FRα(+) 98M109 tumors with folate analog competition; parameters: species or system mice; details: folate analog at 20-fold excess of the dose of compound J; FIG. 6
Description: as §4, §5, §6, §7

[10] = Homo sapiens, A2780, MTS assay, mean IC50 ± SD from four separate experiments, read-out: A2780 IC5
[11] = Homo sapiens, HCT-116, read-out: HCT116 IC50 (nM)
[12] = Homo sapiens, A2780, read-out: A2780 IC5 (nM)

T1 sequence (P15328 25-234): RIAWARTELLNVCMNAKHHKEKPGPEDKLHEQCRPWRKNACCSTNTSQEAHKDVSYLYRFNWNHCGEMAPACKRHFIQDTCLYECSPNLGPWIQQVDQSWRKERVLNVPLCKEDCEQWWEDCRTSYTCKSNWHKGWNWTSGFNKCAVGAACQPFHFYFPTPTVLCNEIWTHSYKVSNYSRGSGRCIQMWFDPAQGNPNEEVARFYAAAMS

CC(=O)O[C@H]1C(=O)[C@@]2(C)[C@H]([C@H](OC(=O)c3ccccc3)[C@]3(O)C[C@H](OC(=O)[C@H](O)[C@@H](NC(=O)c4ccccc4)c4ccccc4)C(C)=C1C3(C)C)[C@]1(OC(C)=O)CO[C@@H]1C[C@@H]2O [paclitaxel]
R/S Ratio (HCT116) [1]: 150 | IC50 [2, 10]: 3.1 ± 1 nM

C/C(=C\c1csc(C)n1)[C@@H]1C[C@H]2[C@@H](CCCC(C)[C@H](O)[C@@H](C)C(=O)C(C)(C)[C@@H](O)CC(=O)O1)N2CCO (relative stereo) [Compound G, [1S-[1R*,3R*(E),7R*,10S*,11R*,12R*,16S*]]-7,11-Dihydroxy-17-[2-hydroxyethyl]-8,8,10,12-tetramethyl-3-[1-methyl-2-(2-methyl-4-thiazolyl)ethenyl]-4-oxa-17-azabicyclo[14.1.0]heptadecane-5,9-dione]
fold more potent than compound AA ([3]; IC90, KB cells, 17 hours): ~4 fold | fold more potent than compound CC ([3]; IC90, KB cells, 17 hours): ~2 fold | fold more potent than ixabepilone ([3]; IC90, KB cells, 17 hours): ~6 fold | concentration needed to kill 90% of clonogenic KB cancer cells (IC90) ([3]; drug exposure duration of 17 hours, FIG. 3): 4.3 nM

C/C(=C\c1csc(C)n1)C1C[C@@H]2N[C@@H]2CCCC(C)[C@H](O)[C@@H](C)C(=O)C(C)(C)[C@@H](O)CC(=O)O1 (some centres unmarked) [Compound CC]
IC50 [4, 11]: 4.2 ± 2.8 nM | R/S Ratio (HCT116) [1]: 3.1 | IC50 [2, 12]: 3.4 ± 1.5 nM | R/S Ratio (A2780) [5]: 4.7

C/C(=C\c1csc(C)n1)C1C[C@H]2[C@@H](CCCC(C)[C@H](O)[C@@H](C)C(=O)C(C)(C)[C@@H](O)CC(=O)O1)N2C (some centres unmarked) [DD]
IC50 [4, 11]: 0.37 ± 0.13 nM | R/S Ratio (HCT116) [1]: 0.6 | IC50 [2, 12]: 0.25 ± 0.06 nM | R/S Ratio (A2780) [5]: 4.1

C/C(=C\c1csc(CN)n1)C1C[C@@H]2O[C@]2(C)CCCC(C)[C@H](O)[C@@H](C)C(=O)C(C)(C)[C@@H](O)CC(=O)O1 (some centres unmarked) [Compound AA]
IC50 ([4]; Homo sapiens, HCT-116, MTS assay, mean IC50 ± SD from four separate experiments, read-out: HCT116 IC50): 1.2 ± 0.3 nM | R/S Ratio (HCT116) [1]: 14.8 | IC50 [2, 10]: 1.1 ± 0.4 nM | R/S Ratio (A2780) [5]: 3

C/C(=C\c1csc(C)n1)[C@@H]1C[C@H]2[C@@H](CCC[C@H](C)[C@H](O)[C@@H](C)C(=O)C(C)(C)[C@@H](O)CC(=O)O1)N2CCOC(=O)OCCSSC[C@H](NC(=O)[C@H](CC(=O)O)NC(=O)[C@H](CCCNC(=N)N)NC(=O)[C@H](CC(=O)O)NC(=O)CC[C@H](NC(=O)c1ccc(NCc2cnc3nc(N)[nH]c(=O)c3n2)cc1)C(=O)O)C(=O)O (some centres unmarked) [Compound J]
relative affinity (RA) for folate receptor [6]: 0.77 | antitumor activity in FRα(−) M109 parent tumor model [7]: poor activity at all dose levels tested | toxicity at two lower dose levels ([8]; dose levels below MTD): minimal toxicity | antitumor effects compared at the MTDs ([8]; versus ixabepilone): superior antitumor effects than ixabepilone | effect of co-administration of a folate analog on antitumor effects [9]: protect FRα(+) 98M109 tumors from the antitumor effects of compound J

C/C(=C\c1csc(C)n1)[C@@H]1C[C@@H]2O[C@]2(C)CCC[C@H](C)[C@H](O)[C@@H](C)C(=O)C(C)(C)[C@@H](O)CC(=O)O1 [Epothilone B]
IC50 ([4]; MTS assay, mean IC50 ± SD from four separate experiments, read-out: HCT116 IC50): 0.4 ± 0.13 nM | R/S Ratio (HCT116) [1]: 0.5 | IC50 ([2]; MTS assay, mean IC50 ± SD from four separate experiments, read-out: A2780 IC5): 0.23 ± 0.09 nM | R/S Ratio (A2780) [5]: 2.5

C/C(=C\c1csc(C)n1)[C@@H]1C[C@@H]2O[C@]2(C)CCC[C@H](C)[C@H](O)[C@@H](C)C(=O)C(C)(C)[C@@H](O)CC(=O)N1 [ixabepilone]
antitumor activity in FRα(−) M109 parent tumor model [7]: active at its MTD

Nc1nc2ncc(CNc3ccc(C(=O)N[C@@H](CCC(=O)O)C(=O)O)cc3)nc2c(=O)[nH]1 [folic acid]
relative affinity (RA) for folate receptor [6]: 1.0
